Experimental data as given in US10851165B2, “Antibody molecules to PD-L1 and methods of treating cancer” (Novartis AG, priority 2014, dated 2020).

Experiments:
[1] = tested on: PD-L1 (CD274) mRNA in Hs.746.T tumor; test: PD-L1 mRNA by TaqMan RT PCR in Hs.746.T tumor xenograft; format: in vivo, human; conditions: Hs.746.T tumor (gastric cancer cell with cMET amplification & mutation) xenograft
Method: Hs.746.T cells are gastric cancer cells with a c-MET amplification and a c-MET mutation.
(§1) Isolated RNA was frozen at −80° C.
(§2) Each sample was run in triplicate.

[2] = tested on: PD-L1 (CD274) in EBC-1 cells; test: PD-L1 surface expression by flow cytometry in EBC-1 cells in vitro; format: cell-based, human; conditions: EBC-1 cells (NSCLC with cMET amplification) in vitro; 10 nM, 100 nM, 1000 nM; 24, 48 and 72 hours; vs DMSO
Method: EBC-1 cells are non-small cell lung cancer cells with a cMET amplification.
PD-L1 (CD274) expression was analyzed in cancer cell lines treated with Compound A17. Cells were obtained from ATCC and cultured in vitro following ATCC directions. The cell lines used were previously characterized by the Cancer Cell Line Encyclopedia Project (http://www.broadinstitute.org/ccle/home).
Cells plated in six-well culture plates were treated with the Compound A17 at different concentrations (10 nM, 100 nM, and 1000 nM) for 24, 48 and 72 hours. Equal amount of vehicle (DMSO) was used as a control. Cells were washed with PBS and then harvested using a cell scraper.
For each reaction, 0.5-1×10^6 cells were stained with 20 μL of anti-human monoclonal PD-L1-PE antibody, clone M1H1 (BD) for 30-60 minutes at 4° C. Cells were washed twice and data was acquired using a Canto II with FACSDiva software (BD Bioscience). Data analysis was performed using FlowJo software (Tree Star). Mean fluorescence intensity (MFI) was determined by gating on single cells. Unstained cells were used as a gating control.

[3] = tested on: PD-L1 (CD274) mRNA in UKE-1 tumors; test: PD-L1 mRNA by TaqMan RT PCR in UKE-1 tumor xenograft model; conditions: tumor xenograft model bearing UKE-1 (MPN line with JAK2V617F mutation)
[4] = tested on: PD-L1 (CD274) mRNA in H3122 cells; test: PD-L1 mRNA by TaqMan RT PCR in H3122 cells in vitro; format: cell-based, human; conditions: H3122 (NSCLC with ALK translocation) in vitro
Method: H3122 cells are non-small cell lung cancer (NSCLC) cells with an ALK translocation.
as §1, §2

[5] = tested on: PD-L1 (CD274) mRNA in LOXIMV1 tumors; test: PD-L1 mRNA by TaqMan RT PCR in LOXIMV1 tumor xenograft model; format: in vivo, human; conditions: tumor xenograft model bearing LOXIMV1 (BRAF mutant melanoma)
Method: as §1, §2

[6] = tested on: PD-L1 (CD274) mRNA in HEYA8 tumors; test: PD-L1 mRNA by TaqMan RT PCR in HEYA8 tumor xenograft model; format: in vivo, human; conditions: tumor xenograft model bearing HEYA8 (KRAF mutant ovarian cancer)
Method: as §1, §2

[7] = molecular target: T1, huPD-L1 (Homo sapiens, UniProt Q9NZQ7); test: FACS binding of chimeric and humanized BAP058 mAbs to 300.19 cells expressing huPD-L1; conditions: 300.19 cell line expressing huPD-L1 on the cell surface
T1 construct: expressed in transfected cells; host or cells: 300.19 cells
Method: FIG. 3 is a bar graph showing the results of FACS binding analysis for the seventeen humanized BAP058 clones (BAP058-hum01 to BAP058-hum17). The antibody concentrations are 200, 100, 50, 25 and 12.5 ng/ml from the leftmost bar to the rightmost bar for each tested mAb.
Humanization of BAP058 was performed using a combinatorial library of human germline variable region frameworks (FWs). The technology entails transferring the murine CDRs in frame to a library of human variable regions (VRs) that had been constructed by randomly combining human germ line FW1, FW2 and FW3 sequences. Only one FW4 sequence was used, which is […] (SEQ ID NO: 154) for the heavy chain (HC) (Kabat human HC subgroup I, No. 21) and […] (SEQ ID NO: 186) for the light chain (LC) (Kabat human κ subgroup I, No. 5). The library of VR sequences was fused to human constant region (CR) sequences, human IgG4 (S228P) of HC and human κ CR of LC, and the resulting library of whole IgG mAbs was expressed in CHO cells for screening. Screening was performed with tissue culture supernatants measuring binding avidity on antigen-expressing cells in a whole cell ELISA format or on FACS.
Binding of the recombinant clone to human PD-L1 was tested using the 300.19 cell line expressing huPD-L1 on the cell surface and FACS analysis.

T1 sequence (Q9NZQ7 19-290): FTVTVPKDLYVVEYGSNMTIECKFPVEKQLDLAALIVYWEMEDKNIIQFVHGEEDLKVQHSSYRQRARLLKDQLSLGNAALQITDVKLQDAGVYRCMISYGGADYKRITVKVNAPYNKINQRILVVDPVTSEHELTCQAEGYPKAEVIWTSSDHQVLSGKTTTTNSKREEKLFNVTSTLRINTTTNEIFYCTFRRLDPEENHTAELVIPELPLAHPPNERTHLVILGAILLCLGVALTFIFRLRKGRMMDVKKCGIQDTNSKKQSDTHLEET

With CNC(=O)c1ccc(-c2cnc3ncc(Cc4ccc5ncccc5c4)n3n2)cc1F [Compound A17, 2-fluoro-N-methyl-4-(7-(quinolin-6-ylmethyl)imidazo[1,2-b][1,2,4]triazin-2-yl)benzamide] the “PD-L1 expression (mRNA)” value [1] was “Inhibition of PD-L1 expression (mRNA)” and the “surface expression of PD-L1 (flow cytometry)” value [2] was “significant downregulation of surface expression of PD-L1”.

With N#CC[C@H](C1CCCC1)n1cc(-c2ncnc3[nH]ccc23)cn1 [Compound A18, Ruxolitinib Phosphate] the “PD-L1 mRNA” value [3] was “Downregulation of PD-L1 mRNA”.

In the case of Cc1cc(Nc2ncc(Cl)c(Nc3ccccc3S(=O)(=O)C(C)C)n2)c(OC(C)C)cc1C1CCNCC1 [Compound A23, ceritinib], the “PD-L1 mRNA” value [4] is reported as “Inhibition of PD-L1 mRNA”.

For COC(=O)N[C@@H](C)CNc1nccc(-c2cn(C(C)C)nc2-c2cc(Cl)cc(NS(C)(=O)=O)c2F)n1 [Compound A29, Encorafenib], the “PD-L1 mRNA” value [5] was “Downregulation of PD-L1 mRNA”.

In the case of Cn1cnc2c(F)c(Nc3ccc(Br)cc3F)c(C(=O)NOCCO)cc21 [Compound A34, Binimetinib], the “PD-L1 mRNA” value [6] is reported as “Downregulation of PD-L1 mRNA”.

B1: BAP058-chi: chimeric mAb: murine VR, human IgG4 (S228P), human κ (antibody, V domains shown)
VH: EVQLQQSGAELVKPGASVKLSCKASGYTFTSYWMYWVKQGPGRGLEWIGRIDPNSGSTKYNEKFKNKATLTVDKSSSTAYMQLSSLTSEDSAVYYCARDYRKGLYAMDYWGQGTTVTVSS
VL: DIMMTQSHKFMSTSVGDRVSITCKASQDVGTAVAWYQQKPGQSPKLLIYWASTRHTGVPDRFTGSGSGTDFTLTISNVQSEDLADYFCQQYNSYPLTFGQGTKVEIK
With B1 the “Binding to human PD-L1 (FACS analysis)” value [7] was “bound well to the antigen”.
